The nature of series [1]: Skin spread factor (product spread on forearm circle, 15 minutes, FD&C Blue No. 1 staining). The note with it: resulting area divided by initial area after fifteen minute spread; FIG. 1A. The series is classed as in vivo. As to the method: The skin spread factor is determined by applying, for example, 5 microliters of a product to a 3.14 cm diameter circle on the volar surface of the forearm. The product is spread evenly within the circle and allowed to spread for a fifteen minute period. The test site and surrounding area of the forearm is then sprayed with a 1 percent solution of FD&C Blue No. 1. The area not stained by the blue dye indicates the area onto which the product spread. The skin spread factor is obtained by dividing the resulting area by the initial area. In accordance with the present invention, formulations have a skin spread factor of less than about 8, preferably less than about 5.

Series [2] in a line: Pigment wetting: viscosity of ester/pigment slurry. The series is classed as physicochemical. As to conditions: for viscosity (pigment wetting): FIG. 1B, dye slurry, 65% ester, 35% pigment, after standing five minutes. As to the method: Pigment wetting properties are determined by preparing a dye slurry and measuring viscosity. For example, a slurry can be prepared using an alkoxylated fatty alcohol dicarboxylic acid ester of the present invention mixed with 35 percent mica or any dye. The viscosity of the slurry is determined after allowing the slurry to stand for five minutes. The lower the viscosity, the better the pigment wetting properties of the ester. Desirably, in accordance with the present invention, viscosity of the resulting dye slurry will be below about 20,000 cps, preferably between about 500 and 15,000 cps and most preferably between about 500 and 5,000 cps based on a 65% ester, 35% pigment mixture (measured in weight percent). Viscosity will vary if a different testing mixture is used.

Bis (PPG2, PEG10 Myristyl) adipate yielded a skin spread factor in series [1] of 2.9. Moreover, the viscosity in series [2] (test mixture not stated at this place) is 18,000 cps.

Consider `CCCCCCCCCCCCCOC(=O)C(C)(C)C` [TDNP, Tridecyl Neopentanoate], for which the skin spread factor entry in series [1] is on record as “very high”. Besides, in series [2], the “viscosity (pigment wetting)” value is “under 1000 cps”.

For the molecule Di-PPG-3 Myristyl Ether Adipate [DP3A], the skin spread factor entry in series [1] is reported as “about 3.8”. In addition, the “viscosity (pigment wetting)” value in series [2] is given as “about 1200 cps”.

Turning to `CCCCCCCC/C=C\CCCCCCCCCCCC(=O)OCCCCCCCCCCCCCCCCCCCCCCCC` [LGE, Lignoceryl Erucate], the skin spread factor entry in series [1] is given as “relatively low”. In addition, in series [2], the “viscosity (pigment wetting)” value is listed as > 15,000 cps.

In the case of Pentaerythrityl Tetraisostearate [PTIS], the skin spread factor result in series [1] was “very low”. Also, the “viscosity (pigment wetting)” value in series [2] is recorded as ~20,000 cps.

(Values after patent publication US6476254B1, “Alkoxylated fatty alcohol dicarboxylic acid esters” (Croda Inc., priority 1998, dated 2002).)
